Test results as given in patent US9359338B2, “Cyclopropanecarboxamido-substitute aromatic compounds as anti-tumor agents” (Crown Bioscience Inc. (Taiwan), priority 2012, dated 2016).
Where two headings read alike, the source gives them in different places.

Experiments:
KDR kinase (790-1356 AA) = KDR kinase (790-1356 AA) (Homo sapiens (Human), UniProt P35968); experiment: Inhibitory activity at KDR kinase (Lance Ultra Ulight-TK assay); type: biochemical
Description: Inhibitory Activity of Compounds at KDR Kinase
• [Experimental method]: Use Lance@Ultra Ulight™-TK assay kit from PerKinElmer to evaluate the inhibitory activity of compounds at KDR kinase. • [Instrument]: PerKinElmer's ENVISION plate reader • [Materials]: Optiplate-384 well plate (PerKinElmer), kinase buffer (50 mM Hepes pH7.5, 0.25 mM EGTA, 2 mM DTT, 0.01% Tween 20, 10 mM Mg^2+, 0.5 mM Mn^2+), KDR kinase (790-1356 AA, Crown Bioscience), KDR kinase substrate (PerKinElmer catalogue # TRF0127-M), Lance@Eu-W1024-anti-phosphotyrosine (PT66) (PerKinElmer, catalogue #AD0068), ATP (Invitrogen), DMSO (Sigma, catalogue #34869), purified water (Millipore, type: Milli-Q). • [Study conditions]: Mix KDR (final concentration: 20 nM) and compound (final DMSO: 0.5%), pre-incubate for 20 min at 30° C.; then add ATP (final concentration: 90 μM) and the substrate (final concentration […]). React for 2 hrs at 30° C. After the reaction, add antibody and reaction for 60 min at 30° C. Read the plate (615 nm, 665 nm), calculate the ratio of the value at 665 nm vs 615 nm and analyze the data. • [Samples]: Compounds in the examples and Sorafenib (positive control) • [Data Analysis]: Use CBIS data analysis software to calculate IC50 values

pERK in MDA-MB-231 cells = experiment: Inhibitory activity at pERK (In Cell Western, MDA-MB-231 cells); type: cell-based; conditions: read-out: MDA-MB-231 pERK IC50
Description: Inhibitory Activity of Compounds at pERK
When the cells reach 80% confluency, collect cells by trypsinization and centrifugation at 800 rpm for 3 minutes. Resuspend cells with appropriate volume of medium and count cell numbers. Adjust cell concentration to 70000 cells/mL, and split 100 μL cell suspension per well into 96-well plates. Transfer the plates into cell culture incubator (37° C., 5% CO2) and incubate cells overnight. Discard the medium, wash with PBS once, Prepare compound serial dilutions in culture medium with total 8 compound concentrations at 3-fold serial dilutions (the final top concentration starts from 30 μM). Dispense 75 μL DMEM medium (with 0.1% BSA) and 25 μL of each test compound dilution into corresponding wells with DMSO at 0.3% final concentration. Continue incubating cells in cell culture incubator for additional 2 hrs at 37° C., 5% CO2. Discard culture medium, and wash cells once with PBS. Add 100 μL of 4% formaldehyde solution to each well and fix for 20 min. Discard the formaldehyde, then add 100 μL ice-cold 100% methanol at 4° C. for 20 min. Discard methanol, wash with PBS three times. Add to each well 100 μL of 2% BSA solution, seal for 30 min at room temperature. Discard the BSA solution, add to each well 50 μL of the 1st antibody solution (prepared with 2% BSA, 1:250 dilution), incubate at 4° C. overnight. Discard the 1^St antibody solution, wash with PBS four times. Add to each well […] the 2nd antibody solution (prepared with 1% BSA, 1:1000 dilution), incubate at room temperature for 1 hr. Discard the 2nd antibody solution, wash with PBS four times, add to each well 100 μL PI solution (1.5 μM), incubate at room temperature for 30 min. Use Acumen (TPP) to measure the fluorescence. • [Samples]: Compounds in the examples and sorafenib (positive control) • [Data Analysis]: Use CBIS data analysis software to calculate IC50 values

PLC-PRF-5 cells = experiment: Inhibition of proliferation of PLC-PRF-5 cells (ATPlite); type: cell-based; conditions: read-out: PLC-PRF-5 cell proliferation IC50
Text: Inhibitory Activity of Compounds to the Proliferation of PLC-PRF-5 Cells
• [experimental Method]: Use PerKinElmer's ATPlite™ Luminescence ATP Detection Assay System to evaluate the inhibitory activity of compounds to the proliferation of PLC-PRF-5 cells. • [Instruments]: ENVISION plate reader (PerKinElmer) and centrifuge (Thermo Scientific, Sorvall ST16R) • [material]: PLC-PRF-5 cells (ATCC), 96-well plate (Nunc, #165305), DMEM medium (Gibco, #11965-092), PBS (Invitrogen, #10010023), fetal bovine serum (Gibco, #16000044), DMSO (Sigma, #D2650), ATPlite™ Luminescence ATP Detection Assay System (PerkinElmer, #6016949), purified water (Millipore, type: Milli-Q). • [Protocol]: Grow PLC-PRF-5 cells in DMEM supplemented with 10% FBS. When the cells reach 80% confluency, collect cells by trypsinization and centrifugation at 800 rpm for 3 min. Resuspend cells with appropriate volume of medium and count cell numbers. Adjust cell concentration to 50000 cells/mL, and split 160 μL cell suspension per well into 96-well plates. Transfer the plates into cell culture incubator (37° C., 5% CO2) and incubate cells for 2 hrs. Prepare compound serial dilutions in culture medium with total 8 compound concentrations at 3-fold serial dilutions (the final top concentration starts from 30 μM). Dispense 40 μL of each test compound dilution into corresponding wells with DMSO at 0.3% final concentration. Continue incubating cells in cell culture incubator for additional 96 hrs at 37° C., 5% CO2. Discard culture medium, and wash cells once with PBS. Add 50 μL cell lysis buffer per well and shake plates for 5 min at room temperature to ensure complete lysis of cells. Then add 50 μL of substrate solution and shake plates for 1 min at room temperature. Allow the plates to incubate at room temperature for 5 min, followed by recording the luminescence signals using Envision, and subsequent data analysis. • [Samples]: Compounds in the examples and Sorafenib (positive control) • [Data analysis]: Use CBIS data analysis software to calculate IC50 values

[1] = Homo sapiens, MDA-MB-231, MDA-MB-231 cells
[2] = Homo sapiens, PLC-PRF-5, PLC-PRF-5 cells

Sequence of KDR kinase (790-1356 AA) (P35968 790-1356): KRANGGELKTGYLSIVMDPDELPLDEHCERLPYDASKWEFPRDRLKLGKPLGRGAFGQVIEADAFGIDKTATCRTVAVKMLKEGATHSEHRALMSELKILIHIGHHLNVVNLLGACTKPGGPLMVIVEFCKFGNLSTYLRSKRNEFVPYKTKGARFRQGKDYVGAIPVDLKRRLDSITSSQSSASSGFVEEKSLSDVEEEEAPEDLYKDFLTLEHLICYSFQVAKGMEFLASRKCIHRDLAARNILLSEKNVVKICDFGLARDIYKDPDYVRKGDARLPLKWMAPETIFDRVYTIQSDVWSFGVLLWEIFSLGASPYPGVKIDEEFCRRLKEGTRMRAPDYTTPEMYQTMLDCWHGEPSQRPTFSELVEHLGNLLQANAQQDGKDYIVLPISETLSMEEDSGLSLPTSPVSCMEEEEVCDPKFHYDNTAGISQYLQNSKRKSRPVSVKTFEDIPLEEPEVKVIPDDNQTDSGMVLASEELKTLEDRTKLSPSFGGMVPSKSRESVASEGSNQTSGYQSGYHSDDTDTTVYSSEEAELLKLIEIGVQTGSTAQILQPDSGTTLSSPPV

IC50 (KDR kinase (790-1356 AA))	IC50 (pERK in MDA-MB-231 cells; [1])	IC50 (pERK in MDA-MB-231 cells; MDA-MB-231 cells)	SMILES	IC50 (PLC-PRF-5 cells; [2])	IC50 (PLC-PRF-5 cells; PLC-PRF-5 cells)
5.4 nM	15.5 nM	–	O=C(Nc1ccc(Cl)c(C(F)(F)F)c1)Nc1cc(Oc2cc(NC(=O)C3CC3)ncn2)ccc1F [Exe. 002, N-[6-[3-[[4-chloro-3-(trifluoromethyl)phenyl]carbamoyl-amino]-4-fluoro-phenoxy]pyrimidin-4-yl]cyclopropanecarboxamide]	3400 nM	–
16.7 nM	87 nM	–	Cc1cc(Oc2cc(NC(=O)C3CC3)ncn2)c(F)cc1NC(=O)Nc1ccc(Cl)c(C(F)(F)F)c1 [Exe. 003]	11500 nM	–
27 nM	40.6 nM	–	O=C(Nc1cc(F)cc(Oc2cc(NC(=O)C3CC3)ncn2)c1)Nc1ccc(Cl)c(C(F)(F)F)c1 [Exe. 005]	6000 nM	–
25 nM	281 nM	–	N#Cc1cc(NC(=O)Nc2ccc(Cl)c(C(F)(F)F)c2)ccc1Oc1cc(NC(=O)C2CC2)ncn1 [Exe. 006]	5380 nM	–
13.4 nM	261 nM	–	Cc1nc(NC(=O)Nc2ccc(Cl)c(C(F)(F)F)c2)ccc1Oc1cc(NC(=O)C2CC2)ncn1 [Exe. 011]	19500 nM	–
9.9 nM	71 nM	–	O=C(Nc1cccc(Oc2cc(NC(=O)C3CC3)ncn2)c1)Nc1ccc(Cl)c(C(F)(F)F)c1 [Exe. 012]	10300 nM	–
14.2 nM	50 nM	–	O=C(Nc1ccc(F)c(Oc2cc(NC(=O)C3CC3)ncn2)c1)Nc1ccc(Cl)c(C(F)(F)F)c1 [Exe. 013]	16100 nM	–
7 nM	48.5 nM	–	Cc1ccc(Oc2cc(NC(=O)C3CC3)ncn2)cc1NC(=O)Nc1ccc(Cl)c(C(F)(F)F)c1 [Exe. 014]	8700 nM	–
4.2 nM	94 nM	–	O=C(Nc1ccc(Oc2cc(NC(=O)C3CC3)ncn2)nc1)Nc1ccc(Cl)c(C(F)(F)F)c1 [Exe. 015]	6500 nM	–
9.4 nM	55 nM	–	Cc1cc(Oc2cc(NC(=O)C3CC3)ncn2)ncc1NC(=O)Nc1ccc(Cl)c(C(F)(F)F)c1 [Exe. 016]	20100 nM	–
9.4 nM	4.6 nM	–	Cc1cc(Oc2ccnc(NC(=O)C3CC3)c2)ncc1NC(=O)Nc1ccc(Cl)c(C(F)(F)F)c1 [Exe. 018]	4040 nM	–
18.2 nM	39 nM	–	N#Cc1cc(NC(=O)Nc2ccc(Cl)c(C(F)(F)F)c2)ccc1Oc1ccnc(NC(=O)C2CC2)c1 [Exe. 026]	900 nM	–
–	–	66.5 nM	O=C(Nc1ccc(Oc2ccnc(NC(=O)C3CC3)c2)c(F)c1)Nc1ccc(Cl)c(C(F)(F)F)c1 [Exe. 027]	–	2390 nM
26 nM	115 nM	–	Cc1cc(Oc2cc(NC(=O)C3CC3)ncn2)ccc1NC(=O)Nc1cc(NC(C)C)cc(C(F)(F)F)c1 [Exe. 032, N-[6-[4-[[3-(isopropylamino)-5-(trifluoromethyl)phenyl]carbamoylamino]-3-methyl-phenoxy]pyrimidin-4-yl]cyclopropanecarboxamide]	20000 nM	–
5.6 nM	5 nM	–	CC(F)(F)c1cncc(NC(=O)Nc2ccc(Oc3ccnc(NC(=O)C4CC4)c3)cc2F)c1 [Exe. 033]	35 nM	–
15.6 nM	290 nM	–	CN1CCC(c2ccc(NC(=O)Nc3ccc(Oc4ccnc(NC(=O)C5CC5)c4)c(F)c3)cc2C(F)(F)F)CC1 [Exe. 036]	2400 nM	–
14.2 nM	54.4 nM	–	O=C(Nc1cc(OC2CCOC2)cc(C(F)(F)F)c1)Nc1ccc(Oc2ccnc(NC(=O)C3CC3)c2)c(F)c1 (centres unmarked) [Exe. 039]	500 nM	–
15.2 nM	134 nM	–	CN1CCC(C(=O)c2cc(NC(=O)Nc3ccc(Oc4ccnc(NC(=O)C5CC5)c4)c(F)c3)cc(C(F)(F)F)c2)CC1 [Exe. 040]	640 nM	–
11.5 nM	94 nM	–	Nc1nnc(-c2cc(NC(=O)Nc3ccc(Oc4ccnc(NC(=O)C5CC5)c4)c(F)c3)cc(C(F)(F)F)c2)o1 [Exe. 042]	3560 nM	–
18.1 nM	30 nM	–	COCC(=O)Nc1cc(NC(=O)Nc2ccc(Oc3ccnc(NC(=O)C4CC4)c3)c(F)c2)cc(C(F)(F)F)c1 [Exe. 043]	604 nM	–
15.4 nM	40 nM	–	CC(c1cc(NC(=O)Nc2ccc(Oc3ccnc(NC(=O)C4CC4)c3)c(F)c2)cc(C(F)(F)F)c1)N1CCN(C)CC1 (centres unmarked) [Exe. 045]	108 nM	–
16.6 nM	58.2 nM	–	O=C(Nc1cc(N2CCC(F)CC2)cc(C(F)(F)F)c1)Nc1ccc(Oc2ccnc(NC(=O)C3CC3)c2)c(F)c1 [Exe. 046]	640 nM	–
9.9 nM	51.3 nM	–	O=C(Nc1cc(NC2CC2)cc(C(F)(F)F)c1)Nc1ccc(Oc2ccnc(NC(=O)C3CC3)c2)c(F)c1 [Exe. 049]	642 nM	–
12.8 nM	110 nM	–	CCOC(=O)C(C)(C)CNc1cc(NC(=O)Nc2ccc(Oc3ccnc(NC(=O)C4CC4)c3)c(F)c2)cc(C(F)(F)F)c1 [Exe. 050]	2230 nM	–
15.3 nM	97.6 nM	–	CC(C)N1CCN(c2cc(NC(=O)Nc3ccc(Oc4ccnc(NC(=O)C5CC5)c4)c(F)c3)cc(C(F)(F)F)c2)CC1 [Exe. 054]	340 nM	–
14.5 nM	284 nM	–	CCN1CCN(c2cc(NC(=O)Nc3ccc(Oc4ccnc(NC(=O)C5CC5)c4)c(F)c3)cc(C(F)(F)F)c2)CC1 [Exe. 055]	420 nM	–
–	75.9 nM	–	CC(c1cc(NC(=O)Nc2ccc(Oc3ccnc(NC(=O)C4CC4)c3)c(F)c2)cc(C(F)(F)F)c1)N1CCNCC1 (centres unmarked) [Exe. 067, N-[4-[2-fluoro-4-[[3-(1-piperazin-1-ylethyl)-5-(trifluoromethyl)phenyl]carbamoylamino]phenoxy]-2-pyridyl]cyclopropanecarboxamide]	235 nM	–
–	–	–	Cc1cc(Oc2cc(NC(=O)C3CC3)ncn2)ccc1NC(=O)Nc1cc(C2CCN(C)CC2)cc(C(F)(F)F)c1 [Exe. 073]	2970 nM	–

SMILES	IC50 (KDR kinase (790-1356 AA))	IC50 (pERK in MDA-MB-231 cells; [1])	IC50 (pERK in MDA-MB-231 cells; MDA-MB-231 cells)	IC50 (PLC-PRF-5 cells; [2])	IC50 (PLC-PRF-5 cells; PLC-PRF-5 cells)
O=C(Nc1cc(N2CCN(CCF)CC2)cc(C(F)(F)F)c1)Nc1ccc(Oc2ccnc(NC(=O)C3CC3)c2)c(F)c1 [Exe. 053]	13 nM	65.1 nM	–	686 nM	–
